13 compounds from patent publication US20260078103A1, “ISOQUINOLONES AS PI3K INHIBITORS” (OnKure, Inc., priority 2022, published 2026) can be followed below.

The IC50 is the point on the concentration scale where inhibition reaches its midpoint. The EC50 is the concentration that produces a half-maximal response.

The subject of one experiment is phosphorylation of AKT (pAKT) in SKBR3 cells express WT PI3Ka. Nature of the experiment: In vitro cell pAKT (Ser473) HTRF, SKBR3 cells. The experiment is classed as cell-based. To be noted: Homo sapiens, SK-BR-3, 6 h, cellular pAKT. The method, boiled down: (§1)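 pAKT (Ser473) was quantified by HTRF in lysates from cells exposed 6 h at 37 °C to 10-point compound series, with T47D in insulin-supplemented RPMI/10% FBS and SKBR3 in McCoy's 5a/10% FBS. Controls: 0.1% DMSO (high) and 10 uM alpelisib (low). IC50 from sigmoidal curve fitting.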
Take `Cc1cc([C@@H](C)Nc2ccccc2C(=O)O)c2cc(-c3cnc(C4CC4)cn3)n(C)c(=O)c2c1` [Example 517]: the half-maximal inhibitory concentration (IC50) was over 15000 nM.
Compound `C[C@@H](Nc1ccccc1C(=O)O)c1cc(F)cc2c(=O)n(C)c(-c3cnc(-c4nccs4)c(F)c3)cc12` [Example 518] showed a half-inhibitory concentration (IC50) of over 15000 nM.
`CCc1ncc(-c2cc3c([C@@H](C)Nc4ccccc4C(=O)O)cc(F)cc3c(=O)n2C)s1` [Example 524] had an IC50 of over 15000 nM.
With `Cc1cc([C@@H](C)Nc2ccccc2C(=O)O)c2c(F)c(C3CC3)n(C)c(=O)c2c1` [Example 529], the 50% inhibitory concentration (IC50) is over 15000 nM.
The same measure, in the same setting: in the case of `CCOc1ncc(-c2c(F)c3c([C@@H](C)Nc4ccccc4C(=O)O)cc(C)cc3c(=O)n2C)s1` [Example 536] it was over 15000 nM.
As to `C[C@@H](Nc1ccccc1C(=O)O)c1cc(F)cc2c(=O)n(C)c(-c3cnc(C(F)F)s3)cc12` [Example 539], the concentration for half-maximal inhibition (IC50) is over 15000 nM.
On the same count and under the same terms, in the case of `C[C@@H](Nc1ccccc1C(=O)O)c1cc(F)cc2c(=O)n(C)c(-c3ccc(COC(F)(F)F)nc3)cc12` [Example 540] it was over 15000 nM.

The experiment is the same for the next values; noted with them: cellular pAKT, 6 hours.
The compound `C[C@@H](Nc1ccccc1C(=O)O)c1cc(F)cc2c(=O)n(C)c(-c3cnc(-c4ncc(Cl)cc4F)c(F)c3)cc12` [Example 505] had a half-inhibitory concentration (IC50) of over 15000 nM.
On the same count and under the same terms, in the case of `C[C@@H](Nc1ccccc1C(=O)O)c1cc(F)cc2c(=O)n(C)c(-c3ccc(OC4COC4)nc3)cc12` [Example 507] it was over 15000 nM; in that of `Cc1ncc(-c2ncc(-c3cc4c([C@@H](C)Nc5ccccc5C(=O)O)cc(F)cc4c(=O)n3C)cc2F)s1` [Example 519], over 15000 nM; in that of `Cc1cc(-c2ncc(-c3cc4c([C@@H](C)Nc5ccccc5C(=O)O)cc(F)cc4c(=O)n3C)cc2F)on1` [Example 520], over 15000 nM.
`C[C@@H](Nc1ccccc1C(=O)O)c1cc(F)cc2c(=O)n(C)c(C34CC(C(F)(F)F)(C3)C4)cc12` [Example 521]: the 50% inhibitory concentration (IC50) is over 15000 nM.
The same measure, in the same setting: in the case of `C#Cc1ccc(N[C@H](C)c2cc(F)cc3c(=O)n(C)c(-c4ccc(OCC(F)(F)F)nc4)cc23)c(C(=O)O)n1` [Example 542] it was 2000 to 15000 nM.

The test system of a further experiment is T47D cells expressing mutant PI3Ka (H1047R). Nature of the experiment: In vitro cell proliferation, T47D cells (CellTiter-Glo). The experiment is classed as cell-based. The note with it: Homo sapiens, T47D, 72 h, inhibition of proliferation, read-out: Avg T-47D EC50. The gist of the method:
(§2)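 Proliferation was read by CellTiter-Glo luminescence after 72 h of exposure to 10-point compound dilutions at 37 °C and 5% CO2. T47D (RPMI, 10% FBS, insulin 0.2 units/mL) and SKBR3 (McCoys 5a, 10% FBS) cells were seeded at 1,500 cells/well. EC50 was fitted from inhibition relative to DMSO and 10 uM Alpelisib.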
Consider `Cc1cc([C@@H](C)Nc2ccccc2C(=O)O)c2cc(-c3cnc(C4CC4)cn3)n(C)c(=O)c2c1` [Example 517], for which the EC50 lay in the range of 1 to 500 nM.
`C[C@@H](Nc1ccccc1C(=O)O)c1cc(F)cc2c(=O)n(C)c(-c3cnc(-c4nccs4)c(F)c3)cc12` [Example 518]: the EC50 fell in the range of 1 to 500 nM.
Consider `CCc1ncc(-c2cc3c([C@@H](C)Nc4ccccc4C(=O)O)cc(F)cc3c(=O)n2C)s1` [Example 524], for which the EC50 is 1 to 500 nM.
Still for that read-out and setting: in the case of `Cc1cc([C@@H](C)Nc2ccccc2C(=O)O)c2c(F)c(C3CC3)n(C)c(=O)c2c1` [Example 529] it was 1 to 500 nM; in that of `CCOc1ncc(-c2c(F)c3c([C@@H](C)Nc4ccccc4C(=O)O)cc(C)cc3c(=O)n2C)s1` [Example 536], 1 to 500 nM; in that of `C[C@@H](Nc1ccccc1C(=O)O)c1cc(F)cc2c(=O)n(C)c(-c3cnc(C(F)F)s3)cc12` [Example 539], 1 to 500 nM.
On the same count and under the same terms, in the case of `C[C@@H](Nc1ccccc1C(=O)O)c1cc(F)cc2c(=O)n(C)c(-c3ccc(COC(F)(F)F)nc3)cc12` [Example 540] it was 1 to 500 nM.

Still in this experiment, the particulars now being: inhibition of proliferation, 72 hours, read-out: Avg T-47D EC50.
Regarding `C[C@@H](Nc1ccccc1C(=O)O)c1cc(F)cc2c(=O)n(C)c(-c3cnc(-c4ncc(Cl)cc4F)c(F)c3)cc12` [Example 505], the half-maximal effective concentration (EC50) was 1 to 500 nM.
On to `C[C@@H](Nc1ccccc1C(=O)O)c1cc(F)cc2c(=O)n(C)c(-c3ccc(OC4COC4)nc3)cc12` [Example 507], for which the EC50 lay in the range of 500 to 2000 nM.
The same measure, in the same setting: in the case of `Cc1ncc(-c2ncc(-c3cc4c([C@@H](C)Nc5ccccc5C(=O)O)cc(F)cc4c(=O)n3C)cc2F)s1` [Example 519] it was 1 to 500 nM; in that of `Cc1cc(-c2ncc(-c3cc4c([C@@H](C)Nc5ccccc5C(=O)O)cc(F)cc4c(=O)n3C)cc2F)on1` [Example 520], 1 to 500 nM; in that of `C[C@@H](Nc1ccccc1C(=O)O)c1cc(F)cc2c(=O)n(C)c(C34CC(C(F)(F)F)(C3)C4)cc12` [Example 521], 1 to 500 nM.
With `C#Cc1ccc(N[C@H](C)c2cc(F)cc3c(=O)n(C)c(-c4ccc(OCC(F)(F)F)nc4)cc23)c(C(=O)O)n1` [Example 542], the concentration giving a half-maximal response (EC50) was in the range of 1 to 500 nM.

Another experiment concerns SKBR3 cells express WT PI3Ka. Nature of the experiment: In vitro cell proliferation, SKBR3 cells (CellTiter-Glo). The experiment is classed as cell-based. The note with it: Homo sapiens, SK-BR-3, 72 h, inhibition of proliferation. The gist of the method:
as §2
Background: Cellular ATP, detected with luciferase, serves as a proxy for viable cell number.
In turn, `Cc1cc([C@@H](C)Nc2ccccc2C(=O)O)c2cc(-c3cnc(C4CC4)cn3)n(C)c(=O)c2c1` [Example 517] gave a concentration giving a half-maximal response (EC50) of over 15000 nM.
Compound `C[C@@H](Nc1ccccc1C(=O)O)c1cc(F)cc2c(=O)n(C)c(-c3cnc(-c4nccs4)c(F)c3)cc12` [Example 518] gave a 50% effective concentration (EC50) of over 15000 nM.
On the same count and under the same terms, for `CCc1ncc(-c2cc3c([C@@H](C)Nc4ccccc4C(=O)O)cc(F)cc3c(=O)n2C)s1` [Example 524] the value was over 15000 nM.
`Cc1cc([C@@H](C)Nc2ccccc2C(=O)O)c2c(F)c(C3CC3)n(C)c(=O)c2c1` [Example 529] yielded a half-maximal effective concentration (EC50) of over 15000 nM.
Still for that read-out and setting: for `CCOc1ncc(-c2c(F)c3c([C@@H](C)Nc4ccccc4C(=O)O)cc(C)cc3c(=O)n2C)s1` [Example 536] the value was over 15000 nM; for `C[C@@H](Nc1ccccc1C(=O)O)c1cc(F)cc2c(=O)n(C)c(-c3cnc(C(F)F)s3)cc12` [Example 539], over 15000 nM.
On the same count and under the same terms, in the case of `C[C@@H](Nc1ccccc1C(=O)O)c1cc(F)cc2c(=O)n(C)c(-c3ccc(COC(F)(F)F)nc3)cc12` [Example 540] it was over 15000 nM.

The experiment is the same for the next values; noted with them: inhibition of proliferation, 72 hours.
For the compound `C[C@@H](Nc1ccccc1C(=O)O)c1cc(F)cc2c(=O)n(C)c(-c3cnc(-c4ncc(Cl)cc4F)c(F)c3)cc12` [Example 505], the concentration giving a half-maximal response (EC50) is over 15000 nM.
Same read-out and setting: in the case of `C[C@@H](Nc1ccccc1C(=O)O)c1cc(F)cc2c(=O)n(C)c(-c3ccc(OC4COC4)nc3)cc12` [Example 507] it was over 15000 nM; in that of `Cc1ncc(-c2ncc(-c3cc4c([C@@H](C)Nc5ccccc5C(=O)O)cc(F)cc4c(=O)n3C)cc2F)s1` [Example 519], over 15000 nM.
On to `Cc1cc(-c2ncc(-c3cc4c([C@@H](C)Nc5ccccc5C(=O)O)cc(F)cc4c(=O)n3C)cc2F)on1` [Example 520], for which the 50% effective concentration (EC50) was over 15000 nM.
Still for that read-out and setting: for `C[C@@H](Nc1ccccc1C(=O)O)c1cc(F)cc2c(=O)n(C)c(C34CC(C(F)(F)F)(C3)C4)cc12` [Example 521] the value was 2000 to 15000 nM; for `C#Cc1ccc(N[C@H](C)c2cc(F)cc3c(=O)n(C)c(-c4ccc(OCC(F)(F)F)nc4)cc23)c(C(=O)O)n1` [Example 542], 2000 to 15000 nM.

The test system of the next experiment is phosphorylation of AKT (pAKT) in T47D cells expressing mutant PI3Ka (H1047R). Description: In vitro cell pAKT (Ser473) HTRF, T47D cells. To be noted: Homo sapiens, T47D, 6 h, cellular pAKT, T47D cells, mutant PI3Ka (H1047R), 6 hours; read-out: Avg T-47D IC50. The experiment is classed as cell-based. The method, boiled down:
as §1
(Time-resolved FRET reads energy transfer from a long-lived donor to a nearby acceptor.)
For the compound `Cc1cc([C@@H](C)Nc2ccccc2C(=O)O)c2cc(-c3cnc(C4CC4)cn3)n(C)c(=O)c2c1` [Example 517], the half-maximal inhibitory concentration (IC50) was in the range of 1 to 500 nM.
On to `C[C@@H](Nc1ccccc1C(=O)O)c1cc(F)cc2c(=O)n(C)c(-c3cnc(-c4nccs4)c(F)c3)cc12` [Example 518], for which the IC50 is 1 to 500 nM.
Still for that read-out and setting: for `CCc1ncc(-c2cc3c([C@@H](C)Nc4ccccc4C(=O)O)cc(F)cc3c(=O)n2C)s1` [Example 524] the value was 1 to 500 nM; for `Cc1cc([C@@H](C)Nc2ccccc2C(=O)O)c2c(F)c(C3CC3)n(C)c(=O)c2c1` [Example 529], 1 to 500 nM.
On the same count and under the same terms, in the case of `CCOc1ncc(-c2c(F)c3c([C@@H](C)Nc4ccccc4C(=O)O)cc(C)cc3c(=O)n2C)s1` [Example 536] it was 1 to 500 nM; in that of `C[C@@H](Nc1ccccc1C(=O)O)c1cc(F)cc2c(=O)n(C)c(-c3cnc(C(F)F)s3)cc12` [Example 539], 1 to 500 nM.
With `C[C@@H](Nc1ccccc1C(=O)O)c1cc(F)cc2c(=O)n(C)c(-c3ccc(COC(F)(F)F)nc3)cc12` [Example 540], the IC50 was in the range of 1 to 500 nM.

The same experiment, now with this note: cellular pAKT, T47D cells, mutant PI3Ka (H1047R), 6 hours; read-out: Avg T-47D IC50.
For `C[C@@H](Nc1ccccc1C(=O)O)c1cc(F)cc2c(=O)n(C)c(-c3cnc(-c4ncc(Cl)cc4F)c(F)c3)cc12` [Example 505], the half-maximal inhibitory concentration (IC50) is 1 to 500 nM.
On the same count and under the same terms, in the case of `C[C@@H](Nc1ccccc1C(=O)O)c1cc(F)cc2c(=O)n(C)c(-c3ccc(OC4COC4)nc3)cc12` [Example 507] it was 1 to 500 nM; in that of `Cc1ncc(-c2ncc(-c3cc4c([C@@H](C)Nc5ccccc5C(=O)O)cc(F)cc4c(=O)n3C)cc2F)s1` [Example 519], 1 to 500 nM; in that of `Cc1cc(-c2ncc(-c3cc4c([C@@H](C)Nc5ccccc5C(=O)O)cc(F)cc4c(=O)n3C)cc2F)on1` [Example 520], 1 to 500 nM.
Same read-out and setting: for `C[C@@H](Nc1ccccc1C(=O)O)c1cc(F)cc2c(=O)n(C)c(C34CC(C(F)(F)F)(C3)C4)cc12` [Example 521] the value was 1 to 500 nM; for `C#Cc1ccc(N[C@H](C)c2cc(F)cc3c(=O)n(C)c(-c4ccc(OCC(F)(F)F)nc4)cc23)c(C(=O)O)n1` [Example 542], 1 to 500 nM.
